Results on 16 compounds are retold here after patent US20260295053A1, “COMPOUNDS FOR DEGRADATION AND INHIBITION OF KRAS (G12D) PROTEIN” (Shenzhen Ionova Life Science Co., Ltd., priority 2023, published 2026).

Some results are limits rather than exact numbers.

One experiment deals with T1, KRAS (G12D) (Homo sapiens, UniProt P01116, G12D).
T1 construct: in-cell western with KRAS G12D antibody after 24 h
Description: KRAS (G12D) cellular degradation assay in AsPC-1 cells. It is filed as cell-based. Particulars: 24 hours, antibody fluorescence (Odyssey CLX), DC50 half-maximal degradation concentration. An outline of the steps:
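AsPC-1 cells were seeded at 22,000/well for degradation and 3,500/well for proliferation. Compounds in 1:3 dilutions ([…] to 1.5 nM final) ran 24 h for degradation, read by in-cell immunofluorescence of KRAS G12D normalised to β-actin, and 6 days for proliferation (CellTiter Glo luminescence). DC50/IC50 came from dose-response fits.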

Another experiment concerns AsPC-1 cells. Briefly: AsPC-1 cell proliferation assay (CellTiter Glo). It is filed as cell-based. Particulars: 6 days. The protocol:
ASPC-1 and PK-59 cellular assays ASPC-1 (ATCC cat. CRL-1682) and PK-59 (Nanjing Cobioer, Cat. No. CBP61184) were used in KRAS cellular degradation, pERK inhibition and proliferation assays. The two cell lines were maintained following vendor's instructions. For monitoring KRAS (G12D) cellular degradation and pERK biomarker inhibition, cells were seeded into a 96-well plate with 22,000 and 16,000 cells/well for assays in ASPC-1 and PK-59, respectively. Cells were incubated at 37° C. with 5% CO2 and cell density was monitored until ^~90% confluency was reached. Compounds were serially diluted at a 1:3 ratio and dispensed into each well at final concentrations ranging from […] to 1.5 nM. After incubation for 24 hours, the culture media were removed and the cells were subjected to fixation, permeabilization and blocking (Intercept blocking buffer, Li-cor). For KRAS (G12D) degradation, the cells were treated with primary antibody (KRAS G12D antibody, Cell Signaling Technologies, Cat. No. CST14429) and for β-actin (β-actin mAb, Beyotime, Cat. No. AF-5001), and followed by secondary antibodies, Anti-rabbit IgG (H+L) (DyLight™ 800 4×PEG Conjugate) or IRDye® 680RD Goat anti-Mouse IgG. For pERK inhibition assay, cells were treated with primary antibodies for pERK (Phospho-p44/42 MAPK (Erk1/2) (Thr202/Tyr204) (D13.14.4E) XP® Rabbit mAb, Cell Signaling Technologies, Cat. No. CST-4370) and β-actin (β-actin mAb, Beyotime, Cat. No. AF-5001), and followed by secondary antibodies, Anti-rabbit IgG (H+L) (DyLight™ 800 4×PEG Conjugate) or IRDye® 680RD Goat anti-Mouse IgG. Fluorescence signals were read on Odyssey CLX instrument. For cell proliferation assays, cells were seeded into a 96-well plate at 3,500 and 800 cells/well for assays in ASPC-1 and PK-59, respectively. Cells were incubated at 37° C. with 5% CO2 for overnight. Compounds were serially diluted at a 1:3 ratio and dispensed into each well at final concentrations ranging from […] to 1.5 nM. After incubation for 6 days, cell viability reagent (CellTiter Glo, Promega, Cat. No. G7573) was added to each well and luminescence was recorded on Molecular Devices Spectramax iD3 instrument. IC50, half-maximal inhibitory concentration for pERK inhibition or cell proliferation, and DC50, half-maximal degradation concentration in KRAS (G12D) cellular degradation were determined by fitting the corresponding dose response curves using GraphPad Prism software.
Wherein “A” means the value <10 nM, “B” means 10 nM<the value <100 nM, “C” means 100 nM<the value <1000 nM, and “D” means the value >1000 nM, in which, the value means the value of DC50 or IC50. NT means not tested.

T1 sequence (P01116 1-188 isoform P01116-2 G12D): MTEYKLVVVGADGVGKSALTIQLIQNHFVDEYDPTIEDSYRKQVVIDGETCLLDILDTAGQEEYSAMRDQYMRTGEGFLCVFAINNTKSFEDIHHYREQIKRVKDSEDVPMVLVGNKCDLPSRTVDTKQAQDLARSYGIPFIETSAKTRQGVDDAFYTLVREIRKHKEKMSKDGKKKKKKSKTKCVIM

Compound `CCn1nccc1-c1ccc([C@H](CO)NC(=O)[C@@H]2C[C@@H](O)CN2C(=O)[C@H](C(C)C)n2cc(-c3ccc(COc4c(-c5c(C)c(F)cc6[nH]ncc56)c(C5CC5)cc5c(N6C[C@H]7C[C@@H]6CN7)nc(OC[C@H](C)OC)nc45)cc3)nn2)cc1` (single isomer, unassigned) [Example 1A] registered a DC50 on KRAS (G12D) below 10 nM. In the experiment on AsPC-1 cells, this compound yielded an IC50 below 10 nM. The compound `CCn1nccc1-c1ccc([C@H](CO)NC(=O)[C@@H]2C[C@@H](O)CN2C(=O)[C@H](C(C)C)n2cc(-c3ccc(COc4c(-c5c(C)c(F)cc6[nH]ncc56)c(C5CC5)cc5c(N6C[C@H]7C[C@@H]6CN7)nc(OC[C@H](C)OC)nc45)cc3)nn2)cc1` (single isomer, unassigned) [Example 1B] gave a DC50 at KRAS (G12D) above 1000 nM. Also, the IC50 in the experiment on AsPC-1 cells is above 1000 nM. In turn, `CO[C@@H](C)COc1nc(N2C[C@H]3C[C@@H]2CN3)c2cc(C3CC3)c(-c3c(C)c(F)cc4[nH]ncc34)c(OCc3ccc(-c4cn([C@H](C(=O)N5C[C@H](O)C[C@H]5C(=O)N[C@@H](CO)c5ccc(-c6scnc6C)cc5)C(C)C)nn4)cc3)c2n1` (single isomer, unassigned) [Example 2A] came in with a DC50 on KRAS (G12D) below 10 nM. In addition, the IC50 in the experiment on AsPC-1 cells was below 10 nM. As to `CO[C@@H](C)COc1nc(N2C[C@H]3C[C@@H]2CN3)c2cc(C3CC3)c(-c3c(C)c(F)cc4[nH]ncc34)c(OCc3ccc(-c4cn([C@H](C(=O)N5C[C@H](O)C[C@H]5C(=O)N[C@@H](CO)c5ccc(-c6scnc6C)cc5)C(C)C)nn4)cc3)c2n1` (single isomer, unassigned) [Example 2B], at KRAS (G12D), the DC50 is above 1000 nM. In the experiment with AsPC-1 cells, this compound gave an IC50 above 1000 nM. `CO[C@@H](C)COc1nc(N2C[C@H]3C[C@@H]2CN3)c2cc(C3CC3)c(-c3c(C)c(F)cc4[nH]ncc34)c(OCc3ccc(-c4cn([C@H](C(=O)N5C[C@H](O)C[C@H]5C(=O)N[C@@H](C)c5ccc(-c6scnc6C)cc5)C(C)C)nn4)cc3)c2n1` (single isomer, unassigned) [Example 3A] showed a DC50 on KRAS (G12D) below 10 nM. Besides, the IC50 in the experiment on AsPC-1 cells was in the range of 10 to 100 nM. `CO[C@@H](C)COc1nc(N2C[C@H]3C[C@@H]2CN3)c2cc(C3CC3)c(-c3c(C)c(F)cc4[nH]ncc34)c(OCc3ccc(-c4cn([C@H](C(=O)N5C[C@H](O)C[C@H]5C(=O)N[C@@H](C)c5ccc(-c6scnc6C)cc5)C(C)C)nn4)cc3)c2n1` (single isomer, unassigned) [Example 3B]: the DC50 on KRAS (G12D) was above 1000 nM. For the same compound, in the experiment on AsPC-1 cells, the IC50 was above 1000 nM. Regarding `CCn1nccc1-c1ccc([C@H](C)NC(=O)[C@@H]2C[C@@H](O)CN2C(=O)[C@H](C(C)C)n2cc(-c3ccc(COc4c(-c5c(C)c(F)cc6[nH]ncc56)c(C5CC5)cc5c(N6C[C@H]7C[C@@H]6CN7)nc(OC[C@H](C)OC)nc45)cc3)nn2)cc1` (single isomer, unassigned) [Example 4A], the DC50 on KRAS (G12D) was below 10 nM. For the same compound, in the experiment with AsPC-1 cells, the IC50 is 10 to 100 nM. The compound `CCn1nccc1-c1ccc([C@H](C)NC(=O)[C@@H]2C[C@@H](O)CN2C(=O)[C@H](C(C)C)n2cc(-c3ccc(COc4c(-c5c(C)c(F)cc6[nH]ncc56)c(C5CC5)cc5c(N6C[C@H]7C[C@@H]6CN7)nc(OC[C@H](C)OC)nc45)cc3)nn2)cc1` (single isomer, unassigned) [Example 4B] returned a DC50 at KRAS (G12D) above 1000 nM. In the experiment with AsPC-1 cells, this compound had an IC50 above 1000 nM. Take `CO[C@@H](C)COc1nc(N2C[C@H]3C[C@@H]2CN3)c2cc(C3CC3)c(-c3c(C)c(F)cc4n[nH]cc34)c(OCc3ccc(-c4cn([C@H](C(=O)N5C[C@H](O)C[C@H]5C(=O)N[C@@H](CO)c5ccc(-c6c(C)noc6C)cc5)C(C)C)nn4)cc3)c2n1` (single isomer, unassigned) [Example 6A]: the DC50 at KRAS (G12D) lay within 10 to 100 nM. For the same compound, the IC50 in the experiment on AsPC-1 cells (Homo sapiens, ASPC1, 144 h) is 10 to 100 nM. As for `CCn1nccc1-c1ccc(CNC(=O)[C@@H]2C[C@@H](O)CN2C(=O)[C@H](C(C)C)n2cc(-c3ccc(COc4c(-c5c(C)c(F)cc6[nH]ncc56)c(C5CC5)cc5c(N6C[C@H]7C[C@@H]6CN7)nc(OC[C@H](C)OC)nc45)cc3)nn2)cc1` (single isomer, unassigned) [Example 7A], the DC50 on KRAS (G12D) lay in the range of 10 to 100 nM. In the experiment on AsPC-1 cells (Homo sapiens, ASPC1, 144 h), this compound displayed an IC50 of 10 to 100 nM.

`CCn1nccc1-c1ccc([C@H](CO)NC(=O)[C@@H]2C[C@@H](O)CN2C(=O)[C@H](C(C)C)n2cc(-c3ccc(COc4c(-c5c(C)c(F)cc6[nH]ncc56)c(C5CC5)cc5c(N6CC7CCC(C6)N7)nc(OC[C@H](C)OC)nc45)cc3)nn2)cc1` (single isomer, unassigned) [Example 8] came in with a DC50 on KRAS (G12D) of 10 to 100 nM. Besides, the IC50 in the experiment on AsPC-1 cells lay in the range of 10 to 100 nM. Compound `CCn1nccc1-c1ccc([C@H](CO)NC(=O)[C@@H]2C[C@@H](O)CN2C(=O)[C@H](C(C)C)n2cc(-c3ccc(COc4c(-c5c(C)c(F)cc6[nH]ncc56)c(C5CC5)cc5c(N6CC7CCC(C6)N7)nc(OC[C@H](C)OC)nc45)cc3)nn2)cc1` (single isomer, unassigned) [Example 9] showed a DC50 on KRAS (G12D) of 10 to 100 nM. Besides, in the experiment on AsPC-1 cells, the IC50 was above 1000 nM. Turning to `CO[C@@H](C)COc1nc(N2C[C@H]3C[C@@H]2CN3)c2cc(C3CC3)c(-c3c(C)c(F)cc4[nH]ncc34)c(OCc3ccc(-c4cn([C@H](C(=O)N5C[C@H](O)C[C@H]5C(=O)NCc5ccc(-c6scnc6C)cc5)C(C)C)nn4)cc3)c2n1` (single isomer, unassigned) [Example 11A], at KRAS (G12D), the DC50 lay within 10 to 100 nM. In the experiment on AsPC-1 cells (Homo sapiens, ASPC1, 144 h), the IC50 was 10 to 100 nM. Consider `CCn1nccc1-c1ccc([C@H](CO)NC(=O)[C@@H]2C[C@@H](O)CN2C(=O)[C@H](C(C)C)n2cc(-c3ccc(COc4c(-c5c(C)c(F)cc6[nH]ncc56)c(C5CC5)cc5c(N(C)C[C@@H]6CCCN6)nc(OC[C@H](C)OC)nc45)cc3)nn2)cc1` [Example 228, (2S,4R)-1-((2S)-2-(4-(4-(((6-cyclopropyl-7-(6-fluoro-5-methyl-1H-indazol-4-yl)-2-((S)-2-methoxypropoxy)-4-(methyl(((S)-pyrrolidin-2-yl)methyl)amino)quinazolin-8-yl)oxy)methyl)phenyl)-1H-1,2,3-triazol-1-yl)-3-methylbutanoyl)-N—((R)-1-(4-(1-ethyl-1H-pyrazol-5-yl)phenyl)-2-hydroxyethyl)-4-hydroxypyrrolidine-2-carboxamide], for which the DC50 at KRAS (G12D) is below 10 nM. Still for that read-out and setting: the same measure for `CCn1nccc1-c1ccc([C@H](CO)NC(=O)[C@@H]2C[C@@H](O)CN2C(=O)[C@H](C(C)C)n2cc(-c3ccc(COc4c(-c5c(C)c(F)cc6[nH]ncc56)c(C5CC5)cc5c(N6C[C@@H]7CN[C@@H](C7)C6)nc(OC[C@H](C)OC)nc45)cc3)nn2)cc1` [Example 229, (2S,4R)-1-((2S)-2-(4-(4-(((4-((1S,5S)-3,6-diazabicyclo[3.2.1]octan-3-yl)-6-cyclopropyl-7-(6-fluoro-5-methyl-1H-indazol-4-yl)-2-((S)-2-methoxypropoxy)quinazolin-8-yl)oxy)methyl)phenyl)-1H-1,2,3-triazol-1-yl)-3-methylbutanoyl)-N—((R)-1-(4-(1-ethyl-1H-pyrazol-5-yl)phenyl)-2-hydroxyethyl)-4-hydroxypyrrolidine-2-carboxamide]: 10 to 100 nM; for `CO[C@@H](C)COc1nc(N2C[C@@H]3CN[C@@H](C3)C2)c2cc(C3CC3)c(-c3c(C)c(F)cc4[nH]ncc34)c(OCc3ccc(-c4cn([C@H](C(=O)N5C[C@H](O)C[C@H]5C(=O)N[C@@H](CO)c5ccc(-c6scnc6C)cc5)C(C)C)nn4)cc3)c2n1` [Example 230, (2S,4R)-1-((2S)-2-(4-(4-(((4-((1S,5S)-3,6-diazabicyclo[3.2.1]octan-3-yl)-6-cyclopropyl-7-(6-fluoro-5-methyl-1H-indazol-4-yl)-2-((S)-2-methoxypropoxy)quinazolin-8-yl)oxy)methyl)phenyl)-1H-1,2,3-triazol-1-yl)-3-methylbutanoyl)-4-hydroxy-N—((R)-2-hydroxy-1-(4-(4-methylthiazol-5-yl)phenyl)ethyl)pyrrolidine-2-carboxamide]: 10 to 100 nM.
